Experimental data: the supplement of paper PMC11451515

Tested on: SEM cells
Test: cell viability relative to DMSO control; higher = less cytotoxic
Conditions: 48 h
Summary of the method: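 Library compounds in DMSO were pin-dosed in an 11-point threefold series (47 μM to 0.79 nM) onto leukemia cells in 1536-well plates (5 μl). Plates held 500 cells/well of NOMO1 or SEM or 1000 cells/well of P12-Ichikawa, each adapted for at least four passages in each medium. Luminescence was read with CellTiter-Glo One after 48 h at 37°C. Viability means the per-plate percentage relative to DMSO wells, using cell-free wells as background.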

[1] = HPLM + 10% dialyzed FBS, 0.000781 µM
[2] = HPLM + 10% dialyzed FBS, 0.00234 µM
[3] = HPLM + 10% dialyzed FBS, 0.00702 µM
[4] = HPLM + 10% dialyzed FBS, 0.0211 µM
[5] = HPLM + 10% dialyzed FBS, 0.0632 µM
[6] = HPLM + 10% dialyzed FBS, 0.19 µM
[7] = HPLM + 10% dialyzed FBS, 0.569 µM
[8] = HPLM + 10% dialyzed FBS, 1.71 µM
[9] = HPLM + 10% dialyzed FBS, 5.12 µM
[10] = HPLM + 10% dialyzed FBS, 15.4 µM
[11] = HPLM + 10% dialyzed FBS, 46.1 µM
[12] = RPMI 5 mM glucose + 10% FBS, 0.000781 µM
[13] = RPMI 5 mM glucose + 10% FBS, 0.00234 µM
[14] = RPMI 5 mM glucose + 10% FBS, 0.00702 µM
[15] = RPMI 5 mM glucose + 10% FBS, 0.0211 µM
[16] = RPMI 5 mM glucose + 10% FBS, 0.0632 µM
[17] = RPMI 5 mM glucose + 10% FBS, 0.19 µM
[18] = RPMI 5 mM glucose + 10% FBS, 0.569 µM
[19] = RPMI 5 mM glucose + 10% FBS, 1.71 µM
[20] = RPMI 5 mM glucose + 10% FBS, 5.12 µM
[21] = RPMI 5 mM glucose + 10% FBS, 15.4 µM
[22] = RPMI 5 mM glucose + 10% FBS, 46.1 µM
[23] = RPMI 5 mM glucose + 10% dialyzed FBS, 0.000781 µM
[24] = RPMI 5 mM glucose + 10% dialyzed FBS, 0.00234 µM
[25] = RPMI 5 mM glucose + 10% dialyzed FBS, 0.00702 µM
[26] = RPMI 5 mM glucose + 10% dialyzed FBS, 0.0211 µM
[27] = RPMI 5 mM glucose + 10% dialyzed FBS, 0.0632 µM
[28] = RPMI 5 mM glucose + 10% dialyzed FBS, 0.19 µM
[29] = RPMI 5 mM glucose + 10% dialyzed FBS, 0.569 µM
[30] = RPMI 5 mM glucose + 10% dialyzed FBS, 1.71 µM
[31] = RPMI 5 mM glucose + 10% dialyzed FBS, 5.12 µM
[32] = RPMI 5 mM glucose + 10% dialyzed FBS, 15.4 µM
[33] = RPMI 5 mM glucose + 10% dialyzed FBS, 46.1 µM

Structure (SMILES)	cell viability [1] [%]	cell viability [2] [%]	cell viability [3] [%]	cell viability [4] [%]	cell viability [5] [%]	cell viability [6] [%]	cell viability [7] [%]	cell viability [8] [%]	cell viability [9] [%]	cell viability [10] [%]	cell viability [11] [%]	cell viability [12] [%]	cell viability [13] [%]	cell viability [14] [%]	cell viability [15] [%]	cell viability [16] [%]	cell viability [17] [%]	cell viability [18] [%]	cell viability [19] [%]	cell viability [20] [%]	cell viability [21] [%]	cell viability [22] [%]	cell viability [23] [%]	cell viability [24] [%]	cell viability [25] [%]	cell viability [26] [%]	cell viability [27] [%]	cell viability [28] [%]	cell viability [29] [%]	cell viability [30] [%]	cell viability [31] [%]	cell viability [32] [%]	cell viability [33] [%]
CC(C)[N+]1(C)C2CCC1CC(OC(=O)C(CO)c1ccccc1)C2.O.[Br-] (stereo unspecified)	96	97.8	107	91.3	98.7	108	93.7	113	91.4	69.4	64.5	111	103	106	96.6	125	119	105	108	85.9	40.7	42.3	93.2	98.2	109	109	120	116	123	130	90.2	40.3	41.9
NC[C@H]1O[C@H](O[C@H]2[C@H](O)[C@@H](O[C@H]3O[C@H](CO)[C@@H](O)[C@H](N)[C@H]3O)[C@H](N)C[C@@H]2N)[C@H](N)C[C@@H]1O	88.9	95.3	98.6	108	104	92.9	107	96.9	101	101	109	93.7	97.1	106	98.6	119	109	112	95.6	89	100	111	105	105	118	116	107	108	110	104	112	103	111
CN(C)CCOc1ccc(/C(=C(/CCCl)c2ccccc2)c2ccccc2)cc1	54.7	92.8	85.2	94.2	108	85.6	88	94.6	58.5	34	16.5	54.5	100	74.7	96.7	98.4	99.5	100	74.8	39.5	22.1	11.9	45.9	96.8	83.6	102	117	97.5	85.8	85.2	57.6	36.1	22.6
Nc1ccc([S+](=O)([O-])Nc2ncccn2)cc1	100	103	105	96.8	109	117	99.7	110	103	109	112	110	108	120	86.1	117	117	108	122	126	114	110	111	109	125	74.4	122	136	133	129	145	134	124
Cc1cnc(Nc2ccc(CN3CCOCC3)cc2)nc1Nc1cccc([S+](=O)([O-])NC(C)(C)C)c1	65	83.2	77.8	72.9	83.4	39.3	58	23.1	5.99	2.23	1.78	87.5	86.9	102	87.8	83.5	44	59.3	19.4	5.03	2.53	2.58	69.5	81.9	82.4	86	84.2	37.7	20.7	16.5	6.18	2.42	2.01
C1COC(NC(C2CC2)C2CC2)=N1	79.5	78	66.1	95.3	72.9	87.9	81.2	21.6	88.7	99	60.1	72.5	92	72.4	75.8	79.5	81.4	87.2	15.3	75.6	75.6	45.9	74.6	89.1	66.9	75.7	73.6	81.8	106	16.6	87.5	105	36.4
Cc1cnc(Nc2ccc(N3CCN(C)CC3)cc2)nc1Nc1cccc([S+](=O)([O-])NC(C)(C)C)c1	110	110	118	114	116	94.9	85.1	27.2	7.39	2.61	3.12	116	113	107	114	104	90.2	77.8	22.8	5.43	2.59	3.4	106	105	119	110	101	88.4	97.9	26.2	7.58	2.94	3.71
